For 24 compounds, IC50 results are on record in patent publication US9932341B2, “Use of pyrazolopyrimidine derivatives for the treatment of PI3K-delta related disorders” (Incyte Corporation, priority 2013, dated 2018).

Counter-ions that a name gives are not always drawn.

The target in this assay is PI3Kδ (p110δ/p85α) (Homo sapiens (Human), UniProt O00329). The experiment in a line: PI3Kδ Scintillation Proximity Assay (Example A3). The format is biochemical. Particulars: 20 μM ATP, 20 μM PIP2, 4 nM PI3Kδ, read-out: PI3Kδ SPA IC50. As to the method: [γ-^33P]ATP (10 mCi/mL) was purchased from PerkinElmer (Waltham, Mass.). […] PI3Kδ (p110δ/p85α) was purchased from Millipore (Bedford, Mass.). ATP, MgCl2, DTT, EDTA, MOPS and CHAPS were purchased from Sigma-Aldrich (St. Louis, Mo.). Wheat Germ Agglutinin (WGA) YSi SPA Scintillation Beads was purchased from GE healthcare life sciences (Piscataway, N.J.).
PI3Kδ (p110δ/p85α), sequence (O00329 whole entry): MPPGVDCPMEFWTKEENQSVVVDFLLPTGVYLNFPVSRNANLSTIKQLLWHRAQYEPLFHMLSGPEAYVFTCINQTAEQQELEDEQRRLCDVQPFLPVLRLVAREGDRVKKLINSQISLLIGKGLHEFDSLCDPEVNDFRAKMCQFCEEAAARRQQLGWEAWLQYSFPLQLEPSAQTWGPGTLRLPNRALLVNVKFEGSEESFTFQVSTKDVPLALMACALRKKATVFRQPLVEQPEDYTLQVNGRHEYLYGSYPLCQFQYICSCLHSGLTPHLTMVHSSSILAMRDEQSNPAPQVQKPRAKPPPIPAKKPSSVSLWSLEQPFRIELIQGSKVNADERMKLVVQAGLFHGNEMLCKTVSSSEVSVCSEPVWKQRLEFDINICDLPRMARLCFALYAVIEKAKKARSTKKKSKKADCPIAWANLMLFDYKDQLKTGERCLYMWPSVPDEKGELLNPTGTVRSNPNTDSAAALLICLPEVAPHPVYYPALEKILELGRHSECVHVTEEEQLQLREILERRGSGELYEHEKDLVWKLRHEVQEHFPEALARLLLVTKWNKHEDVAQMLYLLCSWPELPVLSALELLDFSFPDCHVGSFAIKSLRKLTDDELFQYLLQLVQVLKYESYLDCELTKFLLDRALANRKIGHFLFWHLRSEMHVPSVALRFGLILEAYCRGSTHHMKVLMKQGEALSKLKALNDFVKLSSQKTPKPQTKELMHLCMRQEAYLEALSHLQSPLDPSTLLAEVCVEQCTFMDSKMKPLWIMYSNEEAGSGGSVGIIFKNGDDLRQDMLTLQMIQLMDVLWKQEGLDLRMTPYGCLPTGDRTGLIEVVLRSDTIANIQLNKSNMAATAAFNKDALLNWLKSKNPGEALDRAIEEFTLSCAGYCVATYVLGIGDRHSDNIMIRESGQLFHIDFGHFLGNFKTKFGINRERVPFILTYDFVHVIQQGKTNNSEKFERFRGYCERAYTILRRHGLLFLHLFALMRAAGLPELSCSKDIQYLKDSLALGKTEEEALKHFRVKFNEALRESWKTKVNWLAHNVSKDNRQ
PI3Kδ (p110δ/p85α), sequence (P27986 whole entry partner): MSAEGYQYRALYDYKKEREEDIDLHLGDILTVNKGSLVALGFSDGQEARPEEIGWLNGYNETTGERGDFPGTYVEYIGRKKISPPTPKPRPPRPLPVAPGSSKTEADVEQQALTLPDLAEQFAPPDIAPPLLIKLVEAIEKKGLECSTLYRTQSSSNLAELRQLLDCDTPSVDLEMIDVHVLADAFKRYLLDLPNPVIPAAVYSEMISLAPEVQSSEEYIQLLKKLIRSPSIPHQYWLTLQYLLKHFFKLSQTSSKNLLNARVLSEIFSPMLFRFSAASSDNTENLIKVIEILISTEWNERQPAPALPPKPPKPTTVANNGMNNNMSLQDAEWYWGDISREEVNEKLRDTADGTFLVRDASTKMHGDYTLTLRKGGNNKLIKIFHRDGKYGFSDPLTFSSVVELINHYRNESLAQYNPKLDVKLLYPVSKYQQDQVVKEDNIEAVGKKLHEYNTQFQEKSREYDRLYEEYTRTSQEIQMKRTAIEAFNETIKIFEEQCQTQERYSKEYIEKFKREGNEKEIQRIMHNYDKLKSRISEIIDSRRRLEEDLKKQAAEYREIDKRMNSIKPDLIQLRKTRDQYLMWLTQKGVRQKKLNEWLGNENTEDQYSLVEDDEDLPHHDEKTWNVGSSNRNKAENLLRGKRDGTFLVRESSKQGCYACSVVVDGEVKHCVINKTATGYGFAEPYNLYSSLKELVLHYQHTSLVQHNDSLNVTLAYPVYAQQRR
The kinase reaction was conducted in polystyrene 384-well matrix white plate from Thermo Fisher Scientific in a final volume of 25 μL. Inhibitors were first diluted serially in DMSO and added to the plate wells before the addition of other reaction components. The final concentration of DMSO in the assay was 0.5%. The PI3K assays were carried out at room temperature in 20 mM MOPS, pH 6.7, 10 mM MgCl2, 5 mM DTT and CHAPS 0.03%. Reactions were initiated by the addition of ATP, the final reaction mixture consisted of 20 μM PIP2, 20 μM ATP, 0.2 μCi [γ-^33P] ATP, 4 nM PI3Kδ. […] 25 mM EDTA, 400 μM ATP. The final concentration of SPA beads was 1.0 mg/mL. After the plate sealing, plates were shaken overnight at room temperature and centrifuged at 1800 rpm for 10 minutes, the radioactivity of the product was determined by scintillation counting on Topcount (PerkinElmer). IC50 determination was performed by fitting the curve of percent control activity versus the log of the inhibitor concentration using the GraphPad Prism 3.0 software.
In general terms: Scintillation proximity formats need no separation of bound from free tracer.
As a reminder, the IC50 is the concentration that inhibits the measured activity by half. For `COc1c(C(C)n2nc(C)c3c(N)ncnc32)cc(Cl)c(C)c1C1CN(C(C)C)C1` (single isomer, unassigned) [Example 1, 1-{1-[5-Chloro-3-(1-isopropylazetidin-3-yl)-2-methoxy-4-methylphenyl]ethyl}-3-methyl-1H-pyrazolo[3,4-d]pyrimidin-4-amine bis(trifluoroacetate)], the IC50 is less than 10 nM.
As for `COc1c(C(C)n2nc(C)c3c(N)ncnc32)cc(Cl)c(C)c1-c1ccc(C(=O)N(C)C)c(F)c1` (single isomer, unassigned) [Example 21, 3′-[1-(4-Amino-3-methyl-1H-pyrazolo[3,4-d]pyrimidin-1-yl)ethyl]-5′-chloro-3-fluoro-2′-methoxy-N,N,6′-trimethylbiphenyl-4-carboxamide trifluoroacetate], the figure is less than 10 nM.
For `CNC(=O)c1ccc(-c2c(C)c(Cl)cc(C(C)n3nc(C)c4c(N)ncnc43)c2OC)cc1F` (single isomer, unassigned) [Example 22, 3′-[1-(4-Amino-3-methyl-1H-pyrazolo[3,4-d]pyrimidin-1-yl)ethyl]-5′-chloro-3-fluoro-2′-methoxy-N,6′-dimethylbiphenyl-4-carboxamide trifluoroacetate] the value was less than 10 nM; for `COc1c(C(C)n2nc(C)c3c(N)ncnc32)cc(Cl)c(C)c1-c1cncc(C(=O)N(C)C)c1` (single isomer, unassigned) [Example 65, 5-{3-[1-(4-amino-3-methyl-1H-pyrazolo[3,4-d]pyrimidin-1-yl)ethyl]-5-chloro-2-methoxy-6-methylphenyl}-N,N-dimethylnicotinamide], less than 10 nM; for `CCOc1c(C(C)n2nc(C)c3c(N)ncnc32)cc(Cl)c(C)c1C1CN(C(C)C)C1` (single isomer, unassigned) [Example 94, 1-{1-[5-Chloro-2-ethoxy-3-(1-isopropylazetidin-3-yl)-4-methylphenyl]ethyl}-3-methyl-1H-pyrazolo[3,4-d]pyrimidin-4-amine bis(trifluoroacetate)], less than 10 nM.
For `COc1c(C(C)n2nc(C)c3c(N)ncnc32)cc(Cl)c(C)c1C1CN(CCO)C1` (single isomer, unassigned) [Example 104, 2-(3-{3-[1-(4-Amino-3-methyl-1H-pyrazolo[3,4-d]pyrimidin-1-yl)ethyl]-5-chloro-2-methoxy-6-methylphenyl}azetidin-1-yl)ethanol] the value was less than 10 nM; for `COc1c(C(C)n2nc(C)c3c(N)ncnc32)cc(Cl)c(C)c1C1CN(CC#N)C1` (single isomer, unassigned) [Example 105, (3-{3-[1-(4-Amino-3-methyl-1H-pyrazolo[3,4-d]pyrimidin-1-yl)ethyl]-5-chloro-2-methoxy-6-methylphenyl}azetidin-1-yl)acetonitrile], less than 10 nM; for `COc1c(C(C)n2nc(C)c3c(N)ncnc32)cc(Cl)c(C)c1C1CN(CC(F)(F)F)C1` (single isomer, unassigned) [Example 108, 1-(1-{5-Chloro-2-methoxy-4-methyl-3-[1-(2,2,2-trifluoroethyl)azetidin-3-yl]phenyl}ethyl)-3-methyl-1H-pyrazolo[3,4-d]pyrimidin-4-amine], less than 10 nM.
`COc1c(C(C)n2nc(C)c3c(N)ncnc32)cc(Cl)c(C)c1C1CN(C[C@@H](O)C(F)(F)F)C1` (single isomer, unassigned) [Example 115]: the IC50 is less than 10 nM.
As for `COc1c(C(C)n2nc(C)c3c(N)ncnc32)cc(Cl)c(C)c1C1CN(C(=O)[C@H](C)O)C1` (single isomer, unassigned) [Example 118], the figure is less than 10 nM.
As for `COc1c(C(C)n2nc(C)c3c(N)ncnc32)cc(Cl)c(C)c1C1CN(C(=O)[C@@H](C)O)C1` (single isomer, unassigned) [Example 121, trifluoroacetate], the IC50 was less than 10 nM.
As for `COc1c(C(C)n2nc(C)c3c(N)ncnc32)cc(Cl)c(C)c1C1CN(CC(C)(C)O)C1` (single isomer, unassigned) [Example 158, 1-(3-{3-[1-(4-Amino-3-methyl-1H-pyrazolo[3,4-d]pyrimidin-1-yl)ethyl]-5-chloro-2-methoxy-6-methylphenyl}azetidin-1-yl)-2-methylpropan-2-ol], the figure is less than 10 nM; as for `COc1c(C(C)n2nc(C)c3c(N)ncnc32)cc(Cl)c(C)c1C1CN(C2(CC#N)CCC2)C1` (single isomer, unassigned) [Example 161, [1-(3-{3-[1-(4-Amino-3-methyl-1H-pyrazolo[3,4-d]pyrimidin-1-yl)ethyl]-5-chloro-2-methoxy-6-methylphenyl}azetidin-1-yl)cyclobutyl]acetonitrile], less than 10 nM; as for `COc1c(C(C)n2nc(C)c3c(N)ncnc32)cc(Cl)c(C)c1-c1cnc(N)nc1` (single isomer, unassigned) [Example 169, 1-(1-(3-(2-aminopyrimidin-5-yl)-5-chloro-2-methoxy-4-methylphenyl)ethyl)-3-methyl-1H-pyrazolo[3,4-d]pyrimidin-4-amine], less than 10 nM.
`COc1c(C(C)n2nc(C)c3c(N)ncnc32)cc(Cl)c(C)c1-c1cnn(CCN(C)C)c1` (single isomer, unassigned) [Example 183, 1-[1-(5-Chloro-3-{1-[2-(dimethylamino)ethyl]-1H-pyrazol-4-yl}-2-methoxy-4-methylphenyl)ethyl]-3-methyl-1H-pyrazolo[3,4-d]pyrimidin-4-amine]: the half-maximal inhibitory concentration (IC50) was less than 10 nM.
Consider `COc1c(C(C)n2nc(C)c3c(N)ncnc32)cc(Cl)c(C)c1-c1ccc(NCCO)nc1` (single isomer, unassigned) [Example 184, 2-[(5-{3-[1-(4-Amino-3-methyl-1H-pyrazolo[3,4-d]pyrimidin-1-yl)ethyl]-5-chloro-2-methoxy-6-methylphenyl}pyridin-2-yl)amino]ethanol], for which the IC50 was less than 10 nM.
For `COc1c(C(C)n2nc(C)c3c(N)ncnc32)cc(Cl)c(C)c1-c1ccc(OCCO)nc1` (single isomer, unassigned) [Example 188, 2-(5-(3-(1-(4-Amino-3-methyl-1H-pyrazolo[3,4-d]pyrimidin-1-yl)ethyl)-5-chloro-2-methoxy-6-methylphenyl)pyridin-2-yloxy)ethanol] the value was less than 10 nM.
Consider `Cc1c(Cl)cc(C(C)n2nc(C)c3c(N)ncnc32)c(OCC(F)F)c1-c1ccc(C(=O)N(C)C)nc1` (single isomer, unassigned) [Example 189, 5-(3-(1-(4-Amino-3-methyl-1H-pyrazolo[3,4-d]pyrimidin-1-yl)ethyl)-5-chloro-2-(2,2-difluoroethoxy)-6-methylphenyl)-N,N-dimethylpicolinamide bis(2,2,2-trifluoroacetate)], for which the IC50 was less than 10 nM.
As for `CCOc1c(C(C)n2nc(C)c3c(N)ncnc32)cc(Cl)c(C)c1-c1cnn(CC(N)=O)c1` (single isomer, unassigned) [Example 203, 2-(4-(3-(1-(4-Amino-3-methyl-1H-pyrazolo[3,4-d]pyrimidin-1-yl)ethyl)-5-chloro-2-ethoxy-6-methylphenyl)-1H-pyrazol-1-yl)acetamide], the figure is less than 10 nM; as for `CCOc1c(C(C)n2nc(C)c3c(N)ncnc32)cc(Cl)c(C#N)c1C1CNC1` (single isomer, unassigned) [Example 212, 4-[1-(4-Amino-3-methyl-1H-pyrazolo[3,4-d]pyrimidin-1-yl)ethyl]-2-azetidin-3-yl-6-chloro-3-ethoxybenzonitrile], less than 10 nM.
As for `CCOc1c(C(C)n2nc(C)c3c(N)ncnc32)cc(Cl)c(C#N)c1C1CN(C)C1` (single isomer, unassigned) [Example 213, 4-[1-(4-Amino-3-methyl-1H-pyrazolo[3,4-d]pyrimidin-1-yl)ethyl]-6-chloro-3-ethoxy-2-(1-methylazetidin-3-yl)benzonitrile], the figure is less than 10 nM; as for `CCOc1c(C(C)n2nc(C)c3c(N)ncnc32)cc(Cl)c(C#N)c1C1CN(CCO)C1` (single isomer, unassigned) [Example 219, 4-[1-(4-Amino-3-methyl-1H-pyrazolo[3,4-d]pyrimidin-1-yl)ethyl]-6-chloro-3-ethoxy-2-[1-(2-hydroxyethyl)azetidin-3-yl]benzonitrile], less than 10 nM.
As for `CCOc1c(C(C)n2nc(C)c3c(N)ncnc32)cc(Cl)c(C#N)c1C1CN(C(C)(C)C(=O)OC(C)(C)C)C1` (single isomer, unassigned) [Example 236, tert-Butyl 2-(3-{3-[1-(4-amino-3-methyl-1H-pyrazolo[3,4-d]pyrimidin-1-yl)ethyl]-5-chloro-6-cyano-2-ethoxyphenyl}azetidin-1-yl)-2-methylpropanoate], the half-maximal inhibitory concentration (IC50) was less than 10 nM.
As for `CCOc1c(C(C)n2nc(C)c3c(N)ncnc32)cc(Cl)c(C#N)c1C1CN(C(C)(C)CO)C1` (single isomer, unassigned) [Example 237, 4-[1-(4-Amino-3-methyl-1H-pyrazolo[3,4-d]pyrimidin-1-yl)ethyl]-6-chloro-3-ethoxy-2-[1-(2-hydroxy-1,1-dimethylethyl)azetidin-3-yl]benzonitrile], the figure is less than 10 nM.
